Assay [1] deals with T1, recombinant human Dopamine Subtype D2s receptors (Homo sapiens, UniProt P14416).
T1 construct: purchased Perkin Elmer
As to the kind of experiment: Dopamine D2 selectivity assay, inhibition of [3H]-spiperone binding to membranes. The following applies: [3H]-spiperone 0.16 nM; read-out: D2 bind pIC50 (converted). The protocol: Membranes containing recombinant human Dopamine Subtype D2s receptors were obtained from Perkin Elmer. These were diluted in Assay Buffer (50 mM HEPES, 1 mM EDTA, 120 mM NaCl, 0.1% gelatin, pH 7.4) to provide a final concentration of membranes that gave a clear window between maximum and minimum specific binding.
(§1) Assays were performed in U-bottomed 96-well polypropylene plates. 30 μL [^3H]-spiperone (0.16 nM final concentration) and 30 μL of test compound (10× final concentration) were added to each test well. For each assay plate 8 replicates were obtained for [^3H]-spiperone binding in the presence of 30 μL vehicle (10% (v/v) DMSO in Assay Buffer; defining maximum binding) or 30 μL Haloperidol (10 μM final concentration; defining non-specific binding (NSB)). Membranes were then added to achieve a final volume of 300 μL. The plates were incubated for 2 hours at room temperature and then filtered onto PEI coated GF/B filter plates, pre-soaked for 1 hour in Assay Buffer, using a 96-well plate Tomtec cell harvester. Five washes with 250 μL wash buffer (50 mM HEPES, 1 mM EDTA, 120 mM NaCl, pH 7.4) were performed at 4° C. to remove unbound radioactivity. The plates were dried then sealed from underneath using Packard plate sealers and MicroScint-O (50 μL) was added to each well. The plates were sealed (TopSeal A) and filter-bound radioactivity was measured with a scintillation counter (TopCount, Packard BioScience) using a 3-minute counting protocol.
Total specific binding (B0) was determined by subtracting the mean NSB from the mean maximum binding. NSB values were also subtracted from values from all other wells. […] Data was fitted to a four parameter logistic equation to determine the compound potency, which was expressed as pIC50 (negative log molar concentration inducing 50% inhibition of [^3H]-spiperone binding).

Assay [2] addresses T2, recombinant human α1D receptor (Homo sapiens, UniProt P25100).
T2 construct: made in house; host or cells: HEK293 cells (membranes)
T2 sequence (P25100 1-572): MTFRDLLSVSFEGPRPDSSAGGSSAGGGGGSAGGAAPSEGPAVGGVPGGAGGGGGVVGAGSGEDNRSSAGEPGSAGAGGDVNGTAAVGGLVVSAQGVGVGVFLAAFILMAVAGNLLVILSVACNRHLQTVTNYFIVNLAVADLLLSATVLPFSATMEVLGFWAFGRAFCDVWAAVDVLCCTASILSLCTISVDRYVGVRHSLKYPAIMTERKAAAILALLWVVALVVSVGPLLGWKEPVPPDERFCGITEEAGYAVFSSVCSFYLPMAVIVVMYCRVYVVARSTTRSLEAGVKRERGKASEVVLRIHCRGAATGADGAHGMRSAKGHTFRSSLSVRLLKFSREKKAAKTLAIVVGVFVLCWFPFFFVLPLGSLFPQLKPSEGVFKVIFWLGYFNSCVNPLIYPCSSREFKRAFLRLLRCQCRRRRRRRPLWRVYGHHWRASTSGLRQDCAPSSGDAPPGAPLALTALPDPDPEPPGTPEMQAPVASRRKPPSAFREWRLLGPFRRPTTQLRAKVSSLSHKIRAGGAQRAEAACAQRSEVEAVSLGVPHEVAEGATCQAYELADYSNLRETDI
As to the kind of experiment: Adrenergic α1D selectivity assay, inhibition of [3H]-prazosin binding to membranes. Particulars: HEK293 membranes, [3H]-prazosin 0.3 nM; read-out: α1 bind pIC50 (converted). The protocol:
Membranes were prepared from human embryonic kidney 293 (HEK293) cells expressing recombinant human α1D receptor. These were diluted in Assay Buffer (50 mM HEPES, 1 mM EDTA, 0.1% gelatin, pH 7.4) to provide a final concentration of membranes that gave a clear window between maximum and minimum specific binding.
as §1, with “10” for “30”, “[^3H]-prazosin (0.3” for “[^3H]-spiperone (0.16”, “[^3H]-prazosin” for “[^3H]-spiperone”, “BMY7378” for “Haloperidol”, “100” for “300”, “EDTA,” for “EDTA, 120 mM NaCl,”
Total specific binding (B0) was determined by subtracting the mean NSB from the mean maximum binding. NSB values were also subtracted from values from all other wells. […] Data was fitted to a four parameter logistic equation to determine the compound potency, which was expressed as pIC50 (negative log molar concentration inducing 50% inhibition of [^3H]-prazosin binding).

Counter-ions that a name gives are not always drawn.

T1 sequence (P14416 1-414 isoform P14416-2): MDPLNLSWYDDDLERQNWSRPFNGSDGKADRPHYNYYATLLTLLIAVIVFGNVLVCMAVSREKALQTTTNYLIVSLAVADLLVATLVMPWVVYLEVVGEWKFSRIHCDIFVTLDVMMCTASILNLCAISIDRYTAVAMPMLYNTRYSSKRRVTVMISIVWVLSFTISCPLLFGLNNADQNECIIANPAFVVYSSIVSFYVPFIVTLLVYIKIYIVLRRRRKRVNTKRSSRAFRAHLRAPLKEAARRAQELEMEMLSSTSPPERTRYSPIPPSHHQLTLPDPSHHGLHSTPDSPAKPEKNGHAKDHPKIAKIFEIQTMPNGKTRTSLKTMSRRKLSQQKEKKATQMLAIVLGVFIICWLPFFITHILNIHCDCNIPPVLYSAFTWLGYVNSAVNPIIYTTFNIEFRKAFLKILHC

With `CCN(CC)CCN(CCNCCc1ccc(O)c2[nH]c(=O)sc12)C(=O)CCOCCc1ccc(Cl)cc1` [Example 26, 3-[2-(4-Chlorophenyl)ethoxy]-N-(2-diethylaminoethyl)-N-{2-[2-(4-hydroxy-2-oxo-2,3-dihydro-1,3-benzothiazol-7-yl)ethylamino]ethyl}propanamide dihydrobromide], the IC50 was 1260 nM in assay [1] and 3160 nM in assay [2].
The corresponding values for `CCN(CC)CCN(CCNCCc1ccc(O)c2[nH]c(=O)sc12)C(=O)CCOCCc1cccc(C)c1` [Example 28, N-[2-(Diethylamino)ethyl]-N-(2-{[2-(4-hydroxy-2-oxo-2,3-dihydro-1,3-benzothiazol-7-yl)ethyl]amino}ethyl)-3-[2-(3-methylphenyl)ethoxy]propanamide] are 1000 nM and 1260 nM.

The values above are taken from US7709511B2, “Benzothiazolone derivatives” (AstraZeneca AB, priority 2005, dated 2010).
